# Results taken from US9730940B2, “Purine inhibitors of human phosphatidylinositol 3-kinase delta” (priority 2012, dated 2017).
# Biological target: PI3K-alpha (Homo sapiens (Human), UniProt P42336)
# Assay: HTRF PI3K biochemical assay, alpha isoform
# Settings: ratio PI3K-alpha IC50 value/PI3K-delta IC50 value
# PI3K-alpha, sequence (P42336 whole entry, looked up, canonical isoform): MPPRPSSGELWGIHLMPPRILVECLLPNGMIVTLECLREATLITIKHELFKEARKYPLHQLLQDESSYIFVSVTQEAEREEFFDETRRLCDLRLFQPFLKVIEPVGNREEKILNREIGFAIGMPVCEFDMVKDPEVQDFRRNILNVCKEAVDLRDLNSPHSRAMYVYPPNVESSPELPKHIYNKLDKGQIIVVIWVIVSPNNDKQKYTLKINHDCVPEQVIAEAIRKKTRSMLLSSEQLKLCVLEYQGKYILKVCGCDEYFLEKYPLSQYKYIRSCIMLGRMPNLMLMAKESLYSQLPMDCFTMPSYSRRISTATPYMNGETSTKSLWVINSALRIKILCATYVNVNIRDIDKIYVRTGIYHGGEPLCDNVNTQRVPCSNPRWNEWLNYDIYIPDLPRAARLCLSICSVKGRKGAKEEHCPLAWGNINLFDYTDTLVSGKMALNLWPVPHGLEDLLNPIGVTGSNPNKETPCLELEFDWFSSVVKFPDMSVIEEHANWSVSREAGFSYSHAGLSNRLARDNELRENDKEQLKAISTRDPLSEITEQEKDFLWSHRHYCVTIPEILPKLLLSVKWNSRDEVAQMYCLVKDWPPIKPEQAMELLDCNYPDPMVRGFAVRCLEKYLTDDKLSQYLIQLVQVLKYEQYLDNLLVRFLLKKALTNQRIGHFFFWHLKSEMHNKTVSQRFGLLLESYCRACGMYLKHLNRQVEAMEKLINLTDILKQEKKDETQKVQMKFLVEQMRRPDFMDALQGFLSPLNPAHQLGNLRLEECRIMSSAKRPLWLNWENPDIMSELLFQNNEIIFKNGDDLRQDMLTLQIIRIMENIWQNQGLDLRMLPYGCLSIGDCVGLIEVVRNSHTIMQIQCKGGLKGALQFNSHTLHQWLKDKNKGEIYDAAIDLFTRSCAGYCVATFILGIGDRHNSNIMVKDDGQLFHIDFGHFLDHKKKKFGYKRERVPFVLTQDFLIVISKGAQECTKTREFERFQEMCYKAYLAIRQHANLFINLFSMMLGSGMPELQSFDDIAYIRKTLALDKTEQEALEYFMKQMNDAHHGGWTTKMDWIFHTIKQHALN
# PI3K-alpha, sequence (P27986 whole entry partner, looked up, canonical isoform): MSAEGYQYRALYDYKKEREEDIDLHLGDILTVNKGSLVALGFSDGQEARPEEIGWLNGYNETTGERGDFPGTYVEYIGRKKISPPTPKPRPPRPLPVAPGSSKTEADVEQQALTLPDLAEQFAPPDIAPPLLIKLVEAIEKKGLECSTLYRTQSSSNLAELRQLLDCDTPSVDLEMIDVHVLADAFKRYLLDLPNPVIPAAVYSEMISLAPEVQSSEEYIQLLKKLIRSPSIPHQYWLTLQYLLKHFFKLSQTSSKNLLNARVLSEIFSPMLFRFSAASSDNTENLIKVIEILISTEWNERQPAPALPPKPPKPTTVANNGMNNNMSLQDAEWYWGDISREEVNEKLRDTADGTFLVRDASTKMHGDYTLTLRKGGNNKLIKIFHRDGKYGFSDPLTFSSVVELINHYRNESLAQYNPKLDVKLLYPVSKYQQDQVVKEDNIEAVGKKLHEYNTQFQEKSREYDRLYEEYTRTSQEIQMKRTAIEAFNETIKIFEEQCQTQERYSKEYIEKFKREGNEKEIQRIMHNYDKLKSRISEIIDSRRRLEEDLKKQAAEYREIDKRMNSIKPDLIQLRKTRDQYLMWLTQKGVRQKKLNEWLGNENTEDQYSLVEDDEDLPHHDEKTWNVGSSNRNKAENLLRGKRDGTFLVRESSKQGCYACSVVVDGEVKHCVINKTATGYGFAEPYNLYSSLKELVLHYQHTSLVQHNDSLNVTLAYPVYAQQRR
row,SMILES,Relative Selectivity versus PI3Kalpha
1,"CCn1c(-c2cnc(OC)c(C(F)(F)F)c2)nc2c(O[C@H]3CCN(C(=O)C4CC4)C3)ncnc21 [Compound 3-26, 5-{[(3S)-1-(cyclopropylcarbonyl)pyrrolidin-3-yl]oxy}-9-ethyl-8-[6-methoxy-5-(trifluoromethyl)pyridin-3-yl]-9H-purine]",>10
2,"CCn1c(-c2cnc(OC)nc2)nc2c(O[C@H]3CCN(C(=O)C4CC4)C3)ncnc21 [Compound 3-27, 6-{[(3S)-1-(cyclopropylcarbonyl)pyrrolidin-3-yl]oxy}-9-ethyl-8-(2-methoxypyrimidin-5-yl)-9H-purine]",>10
3,"CCn1c(-c2cnc(OC)c(Cl)c2)nc2c(O[C@H]3CCN(C(=O)C4CC4)C3)ncnc21 [Compound 3-28, 8-(5-chloro-6-methoxypyridin-3-yl)-6-{[(3S)-1-(cyclopropylcarbonyl)pyrrolidin-3-yl]oxy}-9-ethyl-9H-purine]",>10
4,"CCn1c(-c2cnc(C)nc2C)nc2c(O[C@H]3CCN(C(=O)C4CC4)C3)ncnc21 [Compound 3-29, 6-{[(3S)-1-(cyclopropylcarbonyl)pyrrolidin-3-yl]oxy}-8-(2,4-dimethylpyrimidin-5-yl)-9-ethyl-9H-purine]",>10
5,"CCn1c(-c2cnc(C)c(F)c2)nc2c(O[C@H]3CCN(C(=O)C4CC4)C3)ncnc21 [Compound 3-30, 6-{[(3S)-1-(cyclopropylcarbonyl)pyrrolidin-3-yl]oxy}-9-ethyl-8-(5-fluoro-6-methylpyridin-3-yl)-9H-purine]",>10
6,"CCC(=O)N1CC[C@H](Oc2ncnc3c2nc(I)n3C)C1 [Compound 3-31, 8-iodo-9-methyl-6-{[(3S)-1-propanoylpyrrolidin-3-yl]oxy}-9H-purine]",>10
7,"CCC(=O)N1CC[C@H](Oc2ncnc3c2nc(-c2ccc(OC)c(F)c2)n3C)C1 [Compound 3-32, 8-(3-fluoro-4-methoxyphenyl)-9-methyl-5-{[(3S)-1-propanoylpyrrolidin-3-yl]oxy}-9H-purine]",>10
8,"CCC(=O)N1CC[C@H](Oc2ncnc3c2nc(-c2ccc(OC)nc2)n3C)C1 [Compound 3-33, 8-(6-methoxypyridin-3-yl)-9-methyl-6-{[(3S)-1-propanoylpyrrolidin-3-yl]oxy}-9H-purine]",>10
9,"CCC(=O)N1CC[C@H](Oc2ncnc3c2nc(-c2cnc(OC)c(F)c2)n3C)C1 [Compound 3-34, 8-(5-fluoro-6-methoxypyridin-3-yl)-9-methyl-6-{[(3S)-1-propanoylpyrrolidin-3-yl]oxy}-9H-purine]",>10
10,"CCC(=O)N1CC[C@H](Oc2ncnc3c2nc(-c2ccc(OC)c(C(F)(F)F)c2)n3C)C1 [Compound 3-35, 8-[4-methoxy-3-(trifluoromethyl)phenyl]-9-methyl-6-{[(3S)-1-propanoylpyrrolidin-3-yl]oxy}-9H-purine]",>10
11,"CCC(=O)N1CC[C@H](Oc2ncnc3c2nc(-c2ccc(OC)c(C)c2)n3C)C1 [Compound 3-36, 8-(4-methoxy-3-methylphenyl)-9-methyl-6-{[(3S)-1-propanoylpyrrolidin-3-yl]oxy}-9H-purine]",>10
12,"CCC(=O)N1CC[C@H](Oc2ncnc3c2nc(-c2cnc(OC)c(C#N)c2)n3C)C1 [Compound 3-37, 2-methoxy-5-(9-methyl-6-{[(3S)-1-propanoylpyrrolidin-3-yl]oxy}-9H-purin-8-yl)pyridine-3-carbonitrile]",>10
13,"CCC(=O)N1CC[C@H](Oc2ncnc3c2nc(-c2cnc(OC)c(NS(C)(=O)=O)c2)n3C)C1 [Compound 3-38, N-[2-methoxy-5-(9-methyl-6-{[(3S)-1-propanoylpyrrolidin-3-yl]oxy}-9H-purin-8-yl)pyridin-3-yl]methanesulfonamide]",>10
14,"CCC(=O)N1CC[C@H](Oc2ncnc3c2nc(-c2ccc(S(C)(=O)=O)cc2)n3C)C1 [Compound 3-39, 9-methyl-8-[4-(methyslulfonyl)phenyl]-6-{[(3S)-1-propanoylpyrrolidin-3-yl]oxy}-9H-purine]",>10
15,"CCC(=O)N1CC[C@H](Oc2ncnc3c2nc(-c2cnn4c2CCCC4)n3C)C1 [Compound 3-40, 9-methyl-6-{[(3S)-1-propanoylpyrrolidin-3-yl]oxy}-8-(4,5,6,7-tetrahydropyrazolo[1,5-a]pyridin-3-yl)-9H-purine]",>10
16,"CCn1c(-c2cnc(OC)c(NS(C)(=O)=O)c2)nc2c(O[C@H]3CCN(C(=O)C4CC4)C3)ncnc21 [Compound 3-41, N-[5-(6-{[(3S)-1-(cyclopropylcarbonyl)pyrrolidin-3-yl]oxy}-9-ethyl-9H-purin-8-yl)-2-methoxypyridin-3-yl]methanesulfonamide]",>10

row,SMILES,Relative Selectivity versus PI3Kalpha
1,"CCn1c(-c2cnc(OC)c(C#N)c2)nc2c(O[C@H]3CCN(C(=O)C4CC4)C3)ncnc21 [Compound 3-42, 5-(6-{[(3S)-1-(cyclopropylcarbonyl)pyrrolidin-3-yl]oxy}-9-ethyl-9H-purin-8-yl)-2-methoxypyridine-3-carbonitrile]",>10
2,"CCn1c(-c2cnc(C(F)(F)F)nc2)nc2c(O[C@H]3CCN(C(=O)C4CC4)C3)ncnc21 [Compound 3-43, 6-{[(3S)-1-(cyclopropylcarbonyl)pyrrolidin-3-yl]oxy}-9-ethyl-8-[2-(trifluoromethyl)pyrimidin-5-yl]-9H-purine]",>10
3,"CCn1c(-c2cnc(N)c(C(F)(F)F)c2)nc2c(O[C@H]3CCN(C(=O)C4CC4)C3)ncnc21 [Compound 3-44, 5-(6-{[(3S)-1-(cyclopropylcarbonyl)pyrrolidin-3-yl]oxy}-9-ethyl-9H-purin-8-yl)-3-(trifluoromethyl)pyridin-2-amine]",>10
4,"CCn1c(-c2cnc(N(C)C)nc2)nc2c(O[C@H]3CCN(C(=O)C4CC4)C3)ncnc21 [Compound 3-45, 5-(6-{[(3S)-1-(cyclopropylcarbonyl)pyrrolidin-3-yl]oxy}-9-ethyl-9H-purin-8-yl)-N,N-dimethylpyrimidin-2-amine]",>10
5,"CCC1CN(C(=O)C2CC2)CC1Oc1ncnc2c1nc(-c1cnc(C)nc1)n2CC (centres unmarked) [Compound 3-46, [3R,4S and 3S,4R]-6-{[1-(cyclopropylcarbonyl)-4-ethylpyrrolidin-3-yl]oxy}-9-ethyl-8-(2-methylpyrimidin-5-yl)-9H-purine]",>10
6,"CCn1c(-c2ccc(OC)cn2)nc2c(O[C@H]3CCN(C(=O)C4CC4)C3)ncnc21 [Compound 3-48, 6-{[(3S)-1-(cyclopropylcarbonyl)pyrrolidin-3-yl]oxy}-9-ethyl-8-(5-methoxypyridin-2-yl)-9H-purine]",>10
7,"CCn1c(-c2cnc(OC)c(C)c2)nc2c(O[C@H]3CCN(C(=O)C4CC4)C3)ncnc21 [Compound 3-49, 6-{[(3S)-1-(cyclopropylcarbonyl)pyrrolidin-3-yl]oxy}-9-ethyl-8-(6-methoxy-5-methylpyridin-3-yl)-9H-purine]",>10
8,"CCn1c(-c2ccc(OC)nc2)nc2c(O[C@H]3CCN(C(=O)C(C)C)C3)ncnc21 [Compound 3-50, 9-ethyl-8-(6-methoxypyridin-3-yl)-6-{[(3S)-1-(2-methylpropanoyl)pyrrolidin-3-yl]oxy}-9H-purine]",>10
9,"CCn1c(-c2ccc(OC)nc2)nc2c(O[C@H]3CCN(C(=O)C4CC(F)(F)C4)C3)ncnc21 [Compound 3-51, 6-({(3S)-1-[(3,3-difluorocyclobutyl)carbonyl]pyr-rolidin-3-yl}oxy)-9-ethyl-8-(6-methoxypyridin-3-yl)-9H-purine]",>10
10,"CCn1c(-c2ccc(OC)nc2)nc2c(O[C@H]3CCN(C(=O)C4CCOCC4)C3)ncnc21 [Compound 3-52, 9-ethyl-8-(6-methoxypyridin-3-yl)-6-{[(3S)-1-(tetrahydro-2H-pyran-4-ylcarbonyl)pyrrolidin-3-yl]oxy}-9H-purine]",>10
11,"CCn1c(-c2cnc(OC)c(F)c2)nc2c(O[C@H]3CCN(C(=O)C4CC4)C3)ncnc21 [Compound 3-53, 6-{[(3S)-1-(cyclopropylcarbonyl)pyrrolidin-3-yl]oxy}-9-ethyl-8-(5-fluoro-6-methoxypyridin-3-yl)-9H-purine]",>10
12,"CCn1c(-c2cnc(OC)c(F)c2)nc2c(O[C@H]3CCN(C(=O)C(C)C)C3)ncnc21 [Compound 3-54, 9-ethyl-8-(5-fluoro-6-methoxypyridin-3-yl)-6-{[(3S)-1-(2-methylpropanoyl)pyrrolidin-3-yl]oxy}-9H-purine]",>10
13,"CCn1c(-c2cnc(OC)c(F)c2)nc2c(O[C@H]3CCN(C(=O)C4CC(F)(F)C4)C3)ncnc21 [Compound 3-55, 6-({(3S)-1-[(3,3-difluorocyclobutyl)carbonyl]pyr-rolidin-3-yl}oxy)-9-ethyl-8-(5-fluoro-6-methoxypyridin-3-yl)-9H-purine]",>10
14,"CCn1c(-c2cnc(OC)c(F)c2)nc2c(O[C@H]3CCN(C(=O)C4CCOCC4)C3)ncnc21 [Compound 3-56, 9-ethyl-8-(5-fluoro-6-methoxypyridin-3-yl)-6-{[(3S)-1-(tetrahydro-2H-pyran-4-ylcarbonyl)pyrrolidin-3-yl]oxy}-9H-purine]",>10
15,"CCn1c(-c2cnc(OC)c(F)c2)nc2c(O[C@H]3CCN(C(=O)c4ccn(C)n4)C3)ncnc21 [Compound 3-57, 9-ethyl-8-(5-fluoro-6-methoxypyridin-3-yl)-6-({(3S)-1-[(1-methyl-1H-pyrazol-3-yl)carbonyl]pyrrolidin-3-yl}oxy)-9H-purine]",>10
16,"CCn1c(-c2cnc(OC)c(F)c2)nc2c(O[C@H]3CCN(C(=O)c4cncn4C)C3)ncnc21 [Compound 3-58, 9-ethyl-8-(5-fluoro-6-methoxypyridin-3-yl)-6-({(3S)-1-[(1-methyl-1H-imidazol-5-yl)carbonyl]pyrrolidin-3-yl}oxy)-9H-purine]",>10
